Calls of active or inactive are those of the source. No rule for the calls is given here.

Drawing on PubChem BioAssay AID1259411 (Chemical Carcinogenesis Research Information System (CCRIS), 2018), this text covers carcinogen call for three compounds.

In this data set the test system is rodent carcinogenicity bioassays, tumor incidence. The data set is described as follows: CCRIS carcinogenicity studies. Conditions: Dose: 0, Dose: 0. Put shortly:
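NCI-built, expert-reviewed records of carcinogenicity and related test outcomes (mutagenicity, tumor promotion/inhibition) compiled from published and report sources, historical span 1985-2011, not updated.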

In the case of `CCCCC(CC)COP(=O)(OCC(CC)CCCC)OCC(CC)CCCC` (stereo not given), the carcinogen call reads like this: (Species: MOUSE, Strain/Sex: B6C3F1/FEMALE, Route: GAVAGE, 500, 1000 MG/KG IN CORN OIL 1/D 5 D/WK FOR 102-104 WK (STUDY DURATION: 102-104 WK), 500, 1000 MG/KG IN CORN OIL 1/D 5 D/WK FOR 102-104 WK (STUDY DURATION: 102-104 WK), Tumor Site: Type of Lesion: LIVER: CARCINOMA, CARCINOMA OR ADENOMA) “active; positive”; (Species: MOUSE, Strain/Sex: B6C3F1/FEMALE, Route: GAVAGE, 500, 1000 MG/KG IN CORN OIL 5/WK FOR 103 WK (STUDY DURATION: 104 WK), 500, 1000 MG/KG IN CORN OIL 5/WK FOR 103 WK (STUDY DURATION: 104 WK), Tumor Site: Type of Lesion: LIVER: ADENOMA, CARCINOMA) “active; positive”; (Species: MOUSE, Strain/Sex: B6C3F1/MALE, Route: GAVAGE, 500, 1000 MG/KG IN CORN OIL 1/D 5 D/WK FOR 102-104 WK (STUDY DURATION: 102-104 WK), 500, 1000 MG/KG IN CORN OIL 1/D 5 D/WK FOR 102-104 WK (STUDY DURATION: 102-104 WK)) “inactive; negative”; (Species: MOUSE, Strain/Sex: B6C3F1/MALE, Route: GAVAGE, 500, 1000 MG/KG IN CORN OIL 5/WK FOR 103 WK (STUDY DURATION: 104 WK), 500, 1000 MG/KG IN CORN OIL 5/WK FOR 103 WK (STUDY DURATION: 104 WK)) “inactive; negative”; (Species: RAT, Strain/Sex: F344/FEMALE, Route: GAVAGE, 1000, 2000 MG/KG IN CORN OIL 5/WK FOR 103 WK (STUDY DURATION: 103 WK), 1000, 2000 MG/KG IN CORN OIL 5/WK FOR 103 WK (STUDY DURATION: 103 WK)) “inactive; negative”; (Species: RAT, Strain/Sex: F344/FEMALE, Route: GAVAGE, 1000, 2000 MG/KG IN CORN OIL 5 D/WK FOR 102-104 WK (STUDY DURATION: 102-104 WK), 1000, 2000 MG/KG IN CORN OIL 5 D/WK FOR 102-104 WK (STUDY DURATION: 102-104 WK)) “inactive; negative”. Besides, the carcinogen call is “equivocal” (Species: RAT, Strain/Sex: F344/MALE, Route: GAVAGE, 2000, 4000 MG/KG IN CORN OIL 5/WK FOR 103 WK (STUDY DURATION: 104 WK), 2000, 4000 MG/KG IN CORN OIL 5/WK FOR 103 WK (STUDY DURATION: 104 WK), Tumor Site: Type of Lesion: ADRENAL GLAND: PHEOCHROMOCYTOMA) and “inactive; negative” (Species: RAT, Strain/Sex: F344/MALE, Route: GAVAGE, 2000, 4000 MG/KG IN CORN OIL 5 D/WK FOR 102-104 WK (STUDY DURATION: 102-104 WK), 2000, 4000 MG/KG IN CORN OIL 5 D/WK FOR 102-104 WK (STUDY DURATION: 102-104 WK)).
As to `CC(=O)N(O)c1ccc2ccc3cccc4ccc1c2c34`, the carcinogen call by setting is: (Species: RAT, Strain/Sex: STRAIN-CD/FEMALE, Route: INTRAPERITONEAL, 67 UMOL/KG BW IN DMSO 3/WK FOR 4 WK (STUDY DURATION: 61 WK)) “inactive; negative”; (Species: RAT, Strain/Sex: STRAIN-CD/FEMALE, Route: INTRAPERITONEAL, 67 UMOL/KG/BW IN 25 UMOL/ML DMSO 3/WK FOR 4 WK (TOTAL DOSE: 0; 119 UMOL) ADMINISTERED TO WEANLING RATS (STUDY DURATIO, 67 UMOL/KG/BW IN 25 UMOL/ML DMSO 3/WK FOR 4 WK (TOTAL DOSE: 0; 119 UMOL) ADMINISTERED TO WEANLING RATS (STUDY DURATIO) “inactive; negative”.
On to `OCC(CO)(CBr)CBr`, for which the carcinogen call is “active; positive” (Species: GUPPIE, Strain/Sex: MALE, Route: AQUARIUM WATER, 24, 60, 150 MG/L FOR 9 MO THEN IN CLEAN WATER FOR 7 MO (STUDY DURATION: 16 MO), 24, 60, 150 MG/L FOR 9 MO THEN IN CLEAN WATER FOR 7 MO (STUDY DURATION: 16 MO), Tumor Site: Type of Lesion: LIVER: HEPATOCELLULAR ADENOMA OR CARCINOMA); “active; positive; due to mortality, exposure in 150 mg/l group terminated on day 443” (Species: GUPPIE, Strain/Sex: MALE, Route: AQUARIUM WATER, 24, 60, 150 MG/L FOR 16 MO (STUDY DURATION: 16 MO), 24, 60, 150 MG/L FOR 16 MO (STUDY DURATION: 16 MO), Tumor Site: Type of Lesion: LIVER: HEPATOCELLULAR ADENOMA OR CARCINOMA); “inactive; negative” (Species: MEDAKA, Strain/Sex: FEMALE, Route: AQUARIUM WATER, 24, 60, 150 MG/L FOR 14 MO (STUDY DURATION: 14 MO), 24, 60, 150 MG/L FOR 14 MO (STUDY DURATION: 14 MO)); “active; positive” (Species: MEDAKA, Strain/Sex: MALE, Route: AQUARIUM WATER, 24, 60, 150 MG/L FOR 9 MO THEN IN CLEAN WATER FOR 5 MO (STUDY DURATION: 14 MO), 24, 60, 150 MG/L FOR 9 MO THEN IN CLEAN WATER FOR 5 MO (STUDY DURATION: 14 MO), Tumor Site: Type of Lesion: LIVER: HEPATOCELLULAR ADENOMA OR CARCINOMA); “active; positive” (Species: MEDAKA, Strain/Sex: MALE, Route: AQUARIUM WATER, 24, 60, 150 MG/L FOR 14 MO (STUDY DURATION: 14 MO), 24, 60, 150 MG/L FOR 14 MO (STUDY DURATION: 14 MO), Tumor Site: Type of Lesion: LIVER: HEPATOCELLULAR ADENOMA OR CARCINOMA); “active; positive” (Species: MOUSE, Strain/Sex: B6C3F1/FEMALE, Route: ORAL, 312, 625, 1250 PPM IN DIET FOR 104-105 WK (STUDY DURATION: 106 WK), 312, 625, 1250 PPM IN DIET FOR 104-105 WK (STUDY DURATION: 106 WK), Tumor Site: Type of Lesion: HARDERIAN GLAND: ADENOMA, CARCINOMA, LUNG: ALVEOLAR/BRONCHIOLAR ADENOMA OR CARCINOMA, SKIN(SUBCUTANEOUS TISSUE): SARCOMA, Tumor Site: Type of Lesion: HARDERIAN GLAND: ADENOMA, CARCINOMA, LUNG: ALVEOLAR/BRONCHIOLAR ADENOMA OR CARCINOMA, SKIN(SUBCUTANEOUS TISSUE): SARCOMA). Also, the carcinogen call runs as follows: (Species: MOUSE, Strain/Sex: B63CF1/MALE, Route: ORAL, 312, 625, 1250 PPM IN DIET FOR 104-105 WK (STUDY DURATION: 106 WK), 312, 625, 1250 PPM IN DIET FOR 104-105 WK (STUDY DURATION: 106 WK), Tumor Site: Type of Lesion: HARDERIAN GLAND: ADENOMA, ADENOMA OR CARCINOMA, LUNG: ALVEOLAR/BRONCHIOLAR ADENOMA, ALVEOLAR/BRONCHIOLAR CARCINOMA) “active; positive”; (Species: RAT, Strain/Sex: F344/FEMALE, Route: ORAL, 2500, 5000, 10000 PPM IN DIET FOR 104-105 WK (STUDY DURATION: 105 WK), 2500, 5000, 10000 PPM IN DIET FOR 104-105 WK (STUDY DURATION: 105 WK), Tumor Site: Type of Lesion: ESOPHAGUS: SQUAMOUS CELL PAPILLOMA, MAMMARY GLAND: FIBROADENOMA, ORAL CAVITY: SQUAMOUS CELL PAPILLOMA OR SQUAMOUS CELL C, Tumor Site: Type of Lesion: ESOPHAGUS: SQUAMOUS CELL PAPILLOMA, MAMMARY GLAND: FIBROADENOMA, ORAL CAVITY: SQUAMOUS CELL PAPILLOMA OR SQUAMOUS CELL C) “active; positive”; (Species: RAT, Strain/Sex: F344/MALE, Route: ORAL, 2500, 5000, 10000 PPM IN DIET FOR 104-105 WK (STUDY DURATION: 105 WK), 2500, 5000, 10000 PPM IN DIET FOR 104-105 WK (STUDY DURATION: 105 WK), Tumor Site: Type of Lesion: ESOPHAGUS: SQUAMOUS CELL PAPILLOMA, LARGE INTESTINE: ADENOMATOUS POLYP, MAMMARY GLAND: FIBROADENOMA, FIBROADENOMA OR ADE, Tumor Site: Type of Lesion: ESOPHAGUS: SQUAMOUS CELL PAPILLOMA, LARGE INTESTINE: ADENOMATOUS POLYP, MAMMARY GLAND: FIBROADENOMA, FIBROADENOMA OR ADE) “active; positive”; (Species: RAT, Strain/Sex: F344/MALE, Route: ORAL, 20000 PPM IN DIET FOR 3 MO FOLLOWED BY NORMAL DIET FOR 21 MO (STUDY DURATION: 2 YR), Tumor Site: Type of Lesion: LARGE INTESTINE: ADENOMATOUS POLYP, LUNG: ALVEOLAR/BRONCHIOLAR ADENOMA OR CARCINOMA, MAMMARY GLAND: FIBROADENOMA, ORAL C, Tumor Site: Type of Lesion: LARGE INTESTINE: ADENOMATOUS POLYP, LUNG: ALVEOLAR/BRONCHIOLAR ADENOMA OR CARCINOMA, MAMMARY GLAND: FIBROADENOMA, ORAL C) “active; positive”.
